Laboratory results from PubChem BioAssay AID1259407 (Chemical Carcinogenesis Research Information System (CCRIS), 2018).
Calls of active or inactive are those of the source. How the calls were made is not given here.

Test system: CCRIS mutagenicity, Ames/micronucleus/aberration tests
Assay: CCRIS mutagenicity studies
[1] = Test System: AMES SALMONELLA TYPHIMURIUM, Strain/Indicator: TA98, Metabolic Activation: NONE, Method: PREINCUBATION
[2] = Test System: AMES SALMONELLA TYPHIMURIUM, Strain/Indicator: TA98, Metabolic Activation: NONE, Method: STANDARD PLATE
[3] = Test System: AMES SALMONELLA TYPHIMURIUM, Strain/Indicator: TA100, Metabolic Activation: NONE, Method: PREINCUBATION
[4] = Test System: AMES SALMONELLA TYPHIMURIUM, Strain/Indicator: TA100, Metabolic Activation: NONE, Method: STANDARD PLATE
[5] = Test System: AMES SALMONELLA TYPHIMURIUM, Strain/Indicator: TA1537, Metabolic Activation: NONE, Method: STANDARD PLATE
[6] = Test System: AMES SALMONELLA TYPHIMURIUM, Strain/Indicator: TA102, Metabolic Activation: NONE, Method: STANDARD PLATE

For O=C(O[C@@H]1Cc2c(O)cc(O)cc2O[C@@H]1c1cc(O)c(O)c(O)c1)c1cc(O)c(O)c(O)c1, the mutagenic call (Test System: Ames Salmonella typhimurium, Strain/Indicator: TA102, Metabolic Activation: None, Method: Preincubation) was “inactive; negative” and the mutagenic call (Test System: Ames Salmonella typhimurium, Strain/Indicator: TA102, Metabolic Activation: Rat, Liver, S-9, Aroclor 1254 in 0.154 M KCl, Method: Preincubation) was “inactive; negative”.
For CCN(CC)CCNc1ccc(CO)c2sc3ccccc3c(=O)c12, the mutagenic call (Test System: AMES SALMONELLA TYPHIMURIUM, Strain/Indicator: TA98, Metabolic Activation: HAMSTER, LIVER, S-9, AROCLOR 1254 (30%), Method: PREINCUBATION) was “active; positive”, the mutagenic call [1] was “active; positive” and the mutagenic call [2] was “active; positive”. For the same compound, the mutagenic call (Test System: AMES SALMONELLA TYPHIMURIUM, Strain/Indicator: TA98, Metabolic Activation: RAT, LIVER, S-9, AROCLOR 1254 (30%), Method: PREINCUBATION) was “active; positive”, the mutagenic call (Test System: AMES SALMONELLA TYPHIMURIUM, Strain/Indicator: TA98, Metabolic Activation: RAT, LIVER, S-9, AROCLOR 1254 OR PHENOBARBITOL, Method: STANDARD PLATE) was “active; positive” and the mutagenic call (Test System: AMES SALMONELLA TYPHIMURIUM, Strain/Indicator: TA98, Metabolic Activation: RAT, LIVER, S-9, KC500 OR PHENOBARBITAL, Method: LIQUID SUSPENSION) was “active; positive”. The mutagenic call (Test System: AMES SALMONELLA TYPHIMURIUM, Strain/Indicator: TA100, Metabolic Activation: HAMSTER, LIVER, S-9, AROCLOR 1254 (30%), Method: PREINCUBATION) was “active; positive”, the mutagenic call [3] was “active; positive” and the mutagenic call [4] was “active; positive”. For the same compound, the mutagenic call (Test System: AMES SALMONELLA TYPHIMURIUM, Strain/Indicator: TA100, Metabolic Activation: RAT, LIVER, S-9, AROCLOR 1254 (30%), Method: PREINCUBATION) was “active; positive”, the mutagenic call (Test System: AMES SALMONELLA TYPHIMURIUM, Strain/Indicator: TA100, Metabolic Activation: RAT, LIVER, S-9, AROCLOR 1254 OR PHENOBARBITOL, Method: STANDARD PLATE) was “active; positive” and the mutagenic call (Test System: AMES SALMONELLA TYPHIMURIUM, Strain/Indicator: TA100, Metabolic Activation: RAT, LIVER, S-9, KC500 OR PHENOBARBITAL, Method: LIQUID SUSPENSION) was “active; positive”. For the same compound, the mutagenic call (Test System: AMES SALMONELLA TYPHIMURIUM, Strain/Indicator: TA1535, Metabolic Activation: NONE, Method: STANDARD PLATE) was “inactive; negative”, the mutagenic call (Test System: AMES SALMONELLA TYPHIMURIUM, Strain/Indicator: TA1535, Metabolic Activation: RAT, LIVER, S-9, AROCLOR 1254 OR PHENOBARBITOL, Method: STANDARD PLATE) was “inactive; negative” and the mutagenic call [5] was “active; positive”. The mutagenic call (Test System: AMES SALMONELLA TYPHIMURIUM, Strain/Indicator: TA1537, Metabolic Activation: RAT, LIVER, S-9, AROCLOR 1254 OR PHENOBARBITOL, Method: STANDARD PLATE) was “active; positive”, the mutagenic call (Test System: AMES SALMONELLA TYPHIMURIUM, Strain/Indicator: TA1537, Metabolic Activation: RAT, LIVER, S-9, KC500 OR PHENOBARBITAL, Method: LIQUID SUSPENSION) was “active; positive” and the mutagenic call (Test System: AMES SALMONELLA TYPHIMURIUM, Strain/Indicator: TA1538, Metabolic Activation: NONE, Method: STANDARD PLATE) was “active; positive”. The mutagenic call (Test System: AMES SALMONELLA TYPHIMURIUM, Strain/Indicator: TA1538, Metabolic Activation: RAT, LIVER, S-9, AROCLOR 1254 OR PHENOBARBITOL, Method: STANDARD PLATE) was “active; positive”, the mutagenic call (Test System: AMES SALMONELLA TYPHIMURIUM, Strain/Indicator: TA1538, Metabolic Activation: RAT, LIVER, S-9, KC500 OR PHENOBARBITAL, Method: LIQUID SUSPENSION) was “active; positive” and the mutagenic call (Test System: CHINESE HAMSTER OVARY, Strain/Indicator: CHO-K1-BH4 (HGPRT), Metabolic Activation: NONE, Method: SUSPENSION/PLATE) was “active; positive”. For the same compound, the mutagenic call (Test System: MOUSE LYMPHOMA, Strain/Indicator: L5178Y (TK+/TK-), Metabolic Activation: NONE, Method: SUSPENSION/PLATE) was “active; positive” and the mutagenic call (Test System: MOUSE LYMPHOMA, Strain/Indicator: L5178Y (TK+/TK-), Metabolic Activation: RAT, LIVER, S-9, AROCLOR 1254, Method: SUSPENSION/PLATE) was “active; positive”.
In the case of CN(C)CCN(C)C, the mutagenic call (Test System: AMES SALMONELLA TYPHIMURIUM, Strain/Indicator: TA98, Metabolic Activation: HAMSTER, LIVER, S-9, AROCLOR 1254 (10%), Method: PREINCUBATION) is reported as “inactive; negative”, the mutagenic call [1] is reported as “inactive; negative” and the mutagenic call (Test System: AMES SALMONELLA TYPHIMURIUM, Strain/Indicator: TA98, Metabolic Activation: RAT, LIVER, S-9, AROCLOR 1254 (10%), Method: PREINCUBATION) is reported as “inactive; negative”. The mutagenic call (Test System: AMES SALMONELLA TYPHIMURIUM, Strain/Indicator: TA100, Metabolic Activation: HAMSTER, LIVER, S-9, AROCLOR 1254 (10%), Method: PREINCUBATION) was “inactive; negative”, the mutagenic call [3] was “inactive; negative” and the mutagenic call (Test System: AMES SALMONELLA TYPHIMURIUM, Strain/Indicator: TA100, Metabolic Activation: RAT, LIVER, S-9, AROCLOR 1254 (10%), Method: PREINCUBATION) was “inactive; negative”. The mutagenic call (Test System: AMES SALMONELLA TYPHIMURIUM, Strain/Indicator: TA1535, Metabolic Activation: HAMSTER, LIVER, S-9, AROCLOR 1254 (10%), Method: PREINCUBATION) was “inactive; negative”, the mutagenic call (Test System: AMES SALMONELLA TYPHIMURIUM, Strain/Indicator: TA1535, Metabolic Activation: NONE, Method: PREINCUBATION) was “inactive; negative” and the mutagenic call (Test System: AMES SALMONELLA TYPHIMURIUM, Strain/Indicator: TA1535, Metabolic Activation: RAT, LIVER, S-9, AROCLOR 1254 (10%), Method: PREINCUBATION) was “inactive; negative”. The mutagenic call (Test System: AMES SALMONELLA TYPHIMURIUM, Strain/Indicator: TA1537, Metabolic Activation: HAMSTER, LIVER, S-9, AROCLOR 1254 (10%), Method: PREINCUBATION) was “inactive; negative”, the mutagenic call (Test System: AMES SALMONELLA TYPHIMURIUM, Strain/Indicator: TA1537, Metabolic Activation: NONE, Method: PREINCUBATION) was “inactive; negative” and the mutagenic call (Test System: AMES SALMONELLA TYPHIMURIUM, Strain/Indicator: TA1537, Metabolic Activation: RAT, LIVER, S-9, AROCLOR 1254 (10%), Method: PREINCUBATION) was “inactive; negative”.
With CCOC(=O)CCBr the mutagenic call (End Point: IN VITRO CHROMOSOMAL ABERRATIONS, Test System: CHL CELLS, Metabolic Activation: NONE) was “active; positive (structural changes)” and the mutagenic call (End Point: IN VITRO CHROMOSOMAL ABERRATIONS, Test System: CHL CELLS, Metabolic Activation: RAT, LIVER, S-9, SODIUM PHENOBARBITAL AND 5,6-BENZOFLAVONE) was “active; positive (structural changes)”.
With CCCCCCNC(=O)n1cc(F)c(=O)[nH]c1=O the mutagenic call (Test System: AMES SALMONELLA TYPHIMURIUM, Strain/Indicator: TA98, Metabolic Activation: S-9, Method: STANDARD PLATE) was “inactive; negative”, the mutagenic call [4] was “inactive; negative” and the mutagenic call (Test System: AMES SALMONELLA TYPHIMURIUM, Strain/Indicator: TA100, Metabolic Activation: S-9, Method: STANDARD PLATE) was “inactive; negative”. For the same compound, the mutagenic call [6] was “inactive; negative”, the mutagenic call [5] was “inactive; negative” and the mutagenic call (Test System: AMES SALMONELLA TYPHIMURIUM, Strain/Indicator: TA1537, Metabolic Activation: S-9, Method: STANDARD PLATE) was “inactive; negative”. The mutagenic call (Test System: E. COLI, Strain/Indicator: WP2 (HCR), Metabolic Activation: NONE, Method: STANDARD PLATE) was “inactive; negative” and the mutagenic call (Test System: E. COLI, Strain/Indicator: WP2 (HCR), Metabolic Activation: S-9, Method: STANDARD PLATE) was “inactive; negative”.
With C[C@]12CC[C@@H]3c4ccc(O)cc4C[C@@H](CCCCCCCCCS(=O)CCCC(F)(F)C(F)(F)F)[C@H]3[C@@H]1CC[C@@H]2O (some centres not stated) the mutagenic call (Test System: CHINESE HAMSTER V-79, Strain/Indicator: V-79 (HPRT)/6-THIOGUANINE, Metabolic Activation: NONE, Method: SUSPENSION/PLATE) was “active; positive”.
In the case of COC(=O)c1cc2c(c3c1c([N+](=O)[O-])cc1c(OC)cccc13)OCO2, the mutagenic call [2] is reported as “active; positive”, the mutagenic call [4] is reported as “active; positive” and the mutagenic call [6] is reported as “inactive; negative”. For the same compound, the mutagenic call [5] was “active; positive” and the mutagenic call (Test System: AMES SALMONELLA TYPHIMURIUM, Strain/Indicator: TM677/8-AZAGUANINE, Metabolic Activation: NONE, Method: SUSPENSION/PLATE) was “inactive; negative”.
With c1cc2ccc3nc4ccccc4c4ccc(c1)c2c34 the mutagenic call (Test System: AMES SALMONELLA TYPHIMURIUM, Strain/Indicator: TA98, Metabolic Activation: NONE) was “inactive; negative”, the mutagenic call (Test System: AMES SALMONELLA TYPHIMURIUM, Strain/Indicator: TA98, Metabolic Activation: S-9) was “active; positive” and the mutagenic call (Test System: AMES SALMONELLA TYPHIMURIUM, Strain/Indicator: TA100, Metabolic Activation: NONE) was “inactive; negative”. The mutagenic call (Test System: AMES SALMONELLA TYPHIMURIUM, Strain/Indicator: TA100, Metabolic Activation: S-9) was “active; positive”.
